# Measured values from patent publication EP4308247B1, “USE OF MONO[…] TREATING SIGNS OF SKIN AGING” (Unilever IP Holdings B.V., priority 2021, dated 2022).
# Test system: primary adult human dermal fibroblasts (HDFs)
# Test: High-throughput compound screen for senolytic activity (cell viability by Hoechst 33342 / SYTOX Green imaging) in early proliferating (EP) and deeply senescent (DS) fibroblasts
# Type: cell-based
# Parameters: key to hit classification based on EP and DS cell viability: senolytic: EP cell viability above the 89% EP threshold and DS cell viability below the 87% DS threshold for at least one concentration of the three serial concentrations; prolifolytic: decreased EP cell viability below the 89% EP threshold but did not decrease DS cell viability below 87%; cytotoxic: decreased both EP and DS cell viability below their respective thresholds; non-toxic: maintained both EP and DS viability above their respective thresholds
# Description: A high-throughput compound screen of 1240 test compounds including inter alia monostearin (IUPAC: 1,3-dihydroxypropan-2-yl octadecanoate 2,3-dihydroxypropyl octadecanoate) was optimised in primary adult human dermal fibroblasts (HDFs). For this, a model of replicative senescence in HDFs was established. In brief, early proliferating (EP) fibroblasts at passage 11 were serially passaged until they reached replicative senescence at passage 29.
# Actinomycin D, a drug widely reported to induce apoptosis in multiple cell types, was optimised for use as a positive 'senolytic control' for the high-throughput compound screen in EP (0.02µM) and DS (0.2µM) HDFs.
# In order to perform the high-throughput screen of the test compounds a thorough validation process of the assay was undertaken prior to experimental screening. For both EP and DS HDFs, the following steps were optimised: optimisation of cell seeding densities in 384-well plate format; validation and optimisation of Actinomycin D positive and DMSO-vehicle negative controls; optimisation of high-throughput image acquisition and high content analysis of Hoechst 33342 (ThermoFisher, UK) in combination with SYTOX Green (ThermoFisher, UK) using the INCell 2200 microscope (GE, UK) for cell death phenotypic read-outs; optimisation of liquid handling system protocols; plate uniformity assessments; and a "dry run" of all components in the assay. […]
compound,measurement,setting,value
"CCCCCCCCCCCCCCCCCC(=O)OCC(O)CO (centres unmarked) [monostearin, 1,3-dihydroxypropan-2-yl octadecanoate 2,3-dihydroxypropyl octadecanoate]","cytotoxicity for senescent cells, compared to growing cells","DS versus EP HDFs, conclusion drawn from the screen",preferential cytotoxicity for senescent cells
same,hit classification based on EP and DS cell viability,"EP and DS HDFs, three serial concentrations, 48 hours incubation, read-out five days post-compound addition, class met for at least one concentration",senolytic
